This test relates to P388 leukemia ip, CD2F1 mice, survival T/C. The test can be described thus: NCI In Vivo Anticancer Drug Screen. Data for tumor model P388 Leukemia (intraperitoneal) in CD2F1 (CDF1) mice. As to conditions: endpoint: median survival time, higher = longer survival. The gist of the method: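 Mice carrying the transplanted tumor received test compound or vehicle. Survival was recorded in each group, and the value is the treated-group measurement divided by that of the vehicle-treated control group.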

Setting [1] is: dose: 50.0 mg/kg/injection, schedule: Q01DX005 (ip), vehicle: saline with Tween-80.
Setting [2] is: dose: 100.0 mg/kg/injection, schedule: Q01DX005 (ip), vehicle: saline with Tween-80.
[3] abbreviates: dose: 200.0 mg/kg/injection, schedule: Q01DX005 (ip), vehicle: saline with Tween-80.
Setting [4] is: dose: 50.0 mg/kg/injection, schedule: Q01DX009 (ip), vehicle: Klucel (hydroxypropylcellulose) (HPC).
Setting [5] is: dose: 100.0 mg/kg/injection, schedule: Q01DX009 (ip), vehicle: Klucel (hydroxypropylcellulose) (HPC).
[6] abbreviates: dose: 200.0 mg/kg/injection, schedule: Q01DX009 (ip), vehicle: Klucel (hydroxypropylcellulose) (HPC).
Setting [7] is: dose: 25.0 mg/kg/injection, schedule: Q01DX005 (ip), vehicle: saline with Tween-80.
The mark [8] stands for this setting: dose: 50.0 mg/kg/injection, schedule: Q01DX005 (ip), vehicle: Klucel (hydroxypropylcellulose) (HPC).
Where [9] appears, read: dose: 100.0 mg/kg/injection, schedule: Q01DX005 (ip), vehicle: Klucel (hydroxypropylcellulose) (HPC).
Setting [10] is: dose: 200.0 mg/kg/injection, schedule: Q01DX005 (ip), vehicle: Klucel (hydroxypropylcellulose) (HPC).

Values joined by “and” are separate entries in the source; they are usually repeats but may differ in a detail not shown here. Equal values may be shown once. Toxic doses and inconclusive results are not listed. Peptide text beside a SMILES is read from it.

Take `COC(=O)C1C2CC3c4[nH]c5c([N+](=O)[O-])c(OC)ccc5c4CCN3CC2CC(OC(=O)c2cc(OC)c(OC)c(OC)c2)C1OC` (centres undefined): the T/C was 98 % of control (dose: 9.38 mg/kg/injection, schedule: Q01DX005 (ip), vehicle: Klucel (hydroxypropylcellulose) (HPC)); 95 % of control (dose: 18.75 mg/kg/injection, schedule: Q01DX005 (ip), vehicle: Klucel (hydroxypropylcellulose) (HPC)); 96 % of control (dose: 37.5 mg/kg/injection, schedule: Q01DX005 (ip), vehicle: Klucel (hydroxypropylcellulose) (HPC)); 86 % of control (dose: 75.0 mg/kg/injection, schedule: Q01DX005 (ip), vehicle: Klucel (hydroxypropylcellulose) (HPC)).
For `Nc1nnc2nc(C(C(=O)c3ccc(F)cc3)c3nc4nnc(N)n4[nH]c3=O)c(=O)[nH]n12`, the T/C is 98 % of control under setting [1], 92 % of control under setting [2] and 91 % of control under setting [3].
As for `NCCSc1cc(O)c2c(c1N)C(=O)c1ccccc1C2=O`, the T/C is, setting by setting: (dose: 12.5 mg/kg/injection, schedule: Q01DX009 (ip), vehicle: Klucel (hydroxypropylcellulose) (HPC)) 106 % of control; (dose: 25.0 mg/kg/injection, schedule: Q01DX009 (ip), vehicle: Klucel (hydroxypropylcellulose) (HPC)) 104 % of control; under setting [4], 106 % of control; under setting [5], 105 % of control.
For the compound `COC(=O)C(Cc1ccc(N(CCCl)CCCl)cc1)N=NNc1nc[nH]c1C(N)=O` (centres undefined), the T/C runs as follows: (dose: 12.5 mg/kg/injection, schedule: Q04DX003 (ip), vehicle: saline with Tween-80) 163 % of control; (dose: 25.0 mg/kg/injection, schedule: Q04DX003 (ip), vehicle: saline with Tween-80) 168 % of control; (dose: 33.0 mg/kg/injection, schedule: Q04DX003 (ip), vehicle: saline with Tween-80) 172 % of control; (dose: 50.0 mg/kg/injection, schedule: Q04DX003 (ip), vehicle: saline with Tween-80) 181 % of control and 213 % of control; (dose: 75.0 mg/kg/injection, schedule: Q04DX003 (ip), vehicle: saline with Tween-80) 231 % of control.
As for `CCOP(=O)(OCC)c1ncn(Cc2ccccc2)c1N`, the T/C was 97 % of control (dose: 100.0 mg/kg/injection, schedule: Q01DX001 (ip), vehicle: saline); 104 % of control (dose: 200.0 mg/kg/injection, schedule: Q01DX001 (ip), vehicle: saline); 101 % of control (dose: 400.0 mg/kg/injection, schedule: Q01DX001 (ip), vehicle: saline).
As to `Oc1ccccc1C=Nc1ccc2nc(SC3CCCC3)sc2c1`, the T/C by setting is: under setting [4], 93 % of control; under setting [5], 97 % of control; under setting [6], 118 % of control.
For `C=CCNC(=S)/N=C1\N=S(C)(=O)c2ccccc21` (centres undefined) the same measures were 96 % of control, 94 % of control and 102 % of control.
With `COc1ccc(SS(=O)c2ccc(C)cc2)cc1` (centres undefined), the T/C runs as follows: (dose: 100.0 mg/kg/injection, schedule: Q01DX001 (ip), vehicle: other) 105 % of control; (dose: 200.0 mg/kg/injection, schedule: Q01DX001 (ip), vehicle: other) 106 % of control; (dose: 400.0 mg/kg/injection, schedule: Q01DX001 (ip), vehicle: other) 111 % of control.
As to `O=C(O)CNc1ncnc2c1CCc1ccccc1-2`, the T/C (dose: 100.0 mg/kg/injection, schedule: Q04DX002 (ip), vehicle: saline) is 100 % of control; the T/C (dose: 200.0 mg/kg/injection, schedule: Q04DX002 (ip), vehicle: saline) is 99 % of control; the T/C (dose: 400.0 mg/kg/injection, schedule: Q04DX002 (ip), vehicle: saline) was 91 % of control.
On to `C/C(N=NC(=S)N1CCCCC1)=C1\C=CC=CN1O`, for which the T/C was 106 % of control under setting [1], 98 % of control under setting [2] and 105 % of control under setting [3].
In the same order, the values of `C=CCOc1cc2c(cc1C(C)c1ccc(F)cc1)OCO2` (centres undefined) are 100 % of control, 104 % of control and 100 % of control.
For `O=C(NCc1ccccc1)Nc1cccc2c(NC(=O)NCc3ccccc3)cccc12`, the T/C runs as follows: (dose: 30.0 mg/kg/injection, schedule: Q01DX005 (ip), vehicle: saline with Tween-80) 91 % of control; (dose: 60.0 mg/kg/injection, schedule: Q01DX005 (ip), vehicle: saline with Tween-80) 86 % of control and 89 % of control; (dose: 120.0 mg/kg/injection, schedule: Q01DX005 (ip), vehicle: saline with Tween-80) 86 % of control.
For the compound `CC1CCCCN1C` (centres undefined), the T/C is, setting by setting: under setting [7], 90 % of control; under setting [1], 91 % of control; under setting [2], 89 % of control.
In the case of `O=C(O)c1ccc(COc2ccc([N+](=O)[O-])cc2Cl)cc1`, the T/C is, setting by setting: (dose: 100.0 mg/kg/injection, schedule: Q04DX003 (ip), vehicle: saline) 100 % of control; (dose: 200.0 mg/kg/injection, schedule: Q04DX003 (ip), vehicle: saline) 99 % of control.
On to `CCC(C)C(NC(=O)C(N)CCCN=C(N)N)C(=O)O` (stereo not drawn) (H-Arg-Ile-OH; configuration not given here), for which the T/C is 98 % of control under setting [8], 100 % of control under setting [9] and 101 % of control under setting [10].
As to `O=C1NC(=O)C(F)(F)C(O)N1` (centres undefined), the T/C was 109 % of control (dose: 75.0 mg/kg/injection, schedule: Q04DX002 (ip), vehicle: saline); 154 % of control (dose: 100.0 mg/kg/injection, schedule: Q01DX009 (ip), vehicle: saline sonified); 172 % of control (dose: 150.0 mg/kg/injection, schedule: Q01DX009 (ip), vehicle: saline sonified); 109 % of control (dose: 150.0 mg/kg/injection, schedule: Q04DX002 (ip), vehicle: saline); 177 % of control (dose: 220.0 mg/kg/injection, schedule: Q01DX009 (ip), vehicle: saline sonified); 116 % of control (dose: 300.0 mg/kg/injection, schedule: Q04DX002 (ip), vehicle: saline). The T/C was 106 % of control (dose: 600.0 mg/kg/injection, schedule: Q04DX002 (ip), vehicle: saline) and 104 % of control (dose: 1200.0 mg/kg/injection, schedule: Q04DX002 (ip), vehicle: saline).
As for `CN=C(NC)c1ccc(NC(=O)/C=C\c2ccc(C(=O)Nc3ccc(C(=NC)NC)cc3)cc2)cc1`, the T/C was 172 % of control (dose: 3.13 mg/kg/injection, schedule: Q01DX009 (ip), vehicle: saline with Tween-80); 150 % of control (dose: 4.4 mg/kg/injection, schedule: Q04DX003 (ip), vehicle: saline with Tween-80); 113 % of control (dose: 6.25 mg/kg/injection, schedule: Q01DX009 (ip), vehicle: saline with Tween-80); 155 % of control (dose: 10.0 mg/kg/injection, schedule: Q04DX003 (ip), vehicle: saline with Tween-80); 95 % of control (dose: 12.5 mg/kg/injection, schedule: Q01DX009 (ip), vehicle: saline with Tween-80); 155 % of control (dose: 15.0 mg/kg/injection, schedule: Q04DX003 (ip), vehicle: saline with Tween-80).
Regarding `CCOC(=O)C(C(=O)OCC)n1c(=O)c2c(ncn2C)n(C)c1=O`, the T/C (dose: 100.0 mg/kg/injection, schedule: Q01DX001 (ip), vehicle: Klucel (hydroxypropylcellulose) (HPC)) is 110 % of control; the T/C (dose: 200.0 mg/kg/injection, schedule: Q01DX001 (ip), vehicle: Klucel (hydroxypropylcellulose) (HPC)) was 101 % of control; the T/C (dose: 400.0 mg/kg/injection, schedule: Q01DX001 (ip), vehicle: Klucel (hydroxypropylcellulose) (HPC)) was 105 % of control.
Regarding `C/C(=N\NC(=S)N(C)C)c1cnccn1`, the T/C is 102 % of control (dose: 12.5 mg/kg/injection, schedule: Q01DX005 (ip), vehicle: saline with Tween-80); 100 % of control under setting [7]; 98 % of control and 101 % of control under setting [1].
`Nc1ccc(Nc2nc(Cl)nc(Nc3ccc(N)cc3)n2)cc1`: the T/C under setting [8] is 98 % of control, the T/C under setting [9] was 90 % of control and the T/C under setting [10] is 90 % of control.
In the case of `Cc1ccc([N+](=O)[O-])cc1O`, the T/C runs as follows: (dose: 25.0 mg/kg/injection, schedule: Q01DX009 (ip), vehicle: other) 95 % of control; (dose: 50.0 mg/kg/injection, schedule: Q01DX009 (ip), vehicle: other) 100 % of control; (dose: 100.0 mg/kg/injection, schedule: Q01DX009 (ip), vehicle: other) 110 % of control.

The values are drawn from PubChem BioAssay AID330 (DTP/NCI, 2004).
